Measured values as given in the supplement of paper PMC8671470.
± gives the standard deviation of the averaged measurements.

Test system: HL-60
Test: cell viability (% survival relative to DMSO control); higher = less cytotoxic
Conditions: 72 h
Summary of the method: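 A rescreen of the full library used HL-60 cells in RPMI 1640 with 10% FBS on 384-well plates, run in duplicate at five tenfold concentrations (1–10,000 nM). Each screen included DMSO or 100 nM of one of three metabolic inhibitors and ran 72 h at 37 °C, 5% CO2. CellTiter-Glo viability was scaled between DMSO and 10 μM proteasome-inhibitor wells. Any area under the curve comes from four-parameter log-logistic fits with drc and PharmacoGx.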

[1] = 0.001 µM, co-treatment: AZD3965 100 nM
[2] = 0.001 µM, co-treatment: DMSO vehicle
[3] = 0.001 µM, co-treatment: GSK2194069 100 nM
[4] = 0.001 µM, co-treatment: pictilisib 100 nM
[5] = 0.01 µM, co-treatment: AZD3965 100 nM
[6] = 0.01 µM, co-treatment: DMSO vehicle
[7] = 0.01 µM, co-treatment: GSK2194069 100 nM
[8] = 0.01 µM, co-treatment: pictilisib 100 nM
[9] = 0.1 µM, co-treatment: AZD3965 100 nM
[10] = 0.1 µM, co-treatment: DMSO vehicle
[11] = 0.1 µM, co-treatment: GSK2194069 100 nM
[12] = 0.1 µM, co-treatment: pictilisib 100 nM
[13] = 1 µM, co-treatment: AZD3965 100 nM
[14] = 1 µM, co-treatment: DMSO vehicle
[15] = 1 µM, co-treatment: GSK2194069 100 nM
[16] = 1 µM, co-treatment: pictilisib 100 nM
[17] = 10 µM, co-treatment: AZD3965 100 nM
[18] = 10 µM, co-treatment: DMSO vehicle
[19] = 10 µM, co-treatment: GSK2194069 100 nM
[20] = 10 µM, co-treatment: pictilisib 100 nM

| Compound | cell viability [1] | cell viability [2] | cell viability [3] | cell viability [4] | cell viability [5] | cell viability [6] | cell viability [7] | cell viability [8] | cell viability [9] | cell viability [10] | cell viability [11] | cell viability [12] | cell viability [13] | cell viability [14] | cell viability [15] | cell viability [16] | cell viability [17] | cell viability [18] | cell viability [19] | cell viability [20] |
| --- | --- | --- | --- | --- | --- | --- | --- | --- | --- | --- | --- | --- | --- | --- | --- | --- | --- | --- | --- | --- |
| O=c1c2ccccc2[se]n1-c1ccccc1 [Ebselen] | 104 ± 4.5% | 98.4 ± 6.1% | 96.3 ± 1.7% | 96.51 ± 0.22% | 101 ± 1.1% | 98.6 ± 6.1% | 102 ± 2.2% | 92.1 ± 3.8% | 102 ± 11% | 103 ± 4.5% | 103 ± 11% | 97.4 ± 12% | 104 ± 5.3% | 99 ± 4.8% | 108 ± 10% | 103 ± 3.2% | 100 ± 1.4% | 95.7 ± 5.4% | 98.4 ± 1.8% | 86.2 ± 7.3% |
| OCCN1CCN(CCCN2c3ccccc3Sc3ccc(Cl)cc32)CC1 [Perphenazine] | 101 ± 1.7% | 105 ± 2.5% | 98.1 ± 2.6% | 99.74 ± 0.41% | 99.4 ± 5.2% | 102 ± 1.6% | 101 ± 11% | 105 ± 2% | 107 ± 5.8% | 105 ± 4.4% | 95.1 ± 16% | 107 ± 8.5% | 98.6 ± 1.1% | 103.72 ± 0.059% | 97.5 ± 15% | 109 ± 5.6% | 86.3 ± 7% | 91.3 ± 5.4% | 55.4 ± 12% | 61.7 ± 8% |
| O=C(c1ccc(OCCN2CCCCC2)cc1)c1c(-c2ccc(O)cc2)sc2cc(O)ccc12 [Raloxifene] | 93 ± 9.2% | 85.9 ± 11% | 79.1 ± 13% | 104.6 ± 0.91% | 91.9 ± 19% | 80.4 ± 24% | 80.5 ± 22% | 94.1 ± 9% | 98 ± 1.4% | 101 ± 2.3% | 93.3 ± 1.2% | 99.7 ± 8.1% | 101 ± 8.2% | 97.14 ± 0.84% | 87.1 ± 23% | 105 ± 2.5% | 100.7 ± 0.99% | 101 ± 1.9% | 70.9 ± 18% | 113 ± 9.9% |
| Cc1ccc(S(=O)(=O)NC2c3ccccc3Oc3ccccc32)cc1 [AH-7614] | 100 ± 1.6% | 100 ± 0.64% | 104 ± 2.2% | 104.2 ± 0.15% | 99.6 ± 0.97% | 100.5 ± 0.4% | 101 ± 2.9% | 90.6 ± 8.2% | 102 ± 4.4% | 100.4 ± 0.53% | 96.8 ± 5.2% | 96.6 ± 2.9% | 97.3 ± 4.8% | 102.5 ± 0.72% | 95.1 ± 9.7% | 92.2 ± 15% | 95.8 ± 1.2% | 96.04 ± 0.12% | 97.2 ± 3.4% | 96.4 ± 7% |
| C[C@]12O[C@H](C[C@]1(O)CO)n1c3ccccc3c3c4c(c5c6ccccc6n2c5c31)CNC4=O [Lestaurtinib] | 104 ± 3.9% | 98.1 ± 4.1% | 107 ± 9.9% | 102 ± 4.3% | 92.9 ± 13% | 70.9 ± 44% | 86.5 ± 36% | 66.2 ± 28% | 76.5 ± 4.3% | 86.9 ± 3.4% | 83.2 ± 7.7% | 53.5 ± 8.1% | 23.5 ± 3.5% | 26.6 ± 0.46% | 31 ± 4.3% | 20.3 ± 3.2% | -1.19 ± 0.32% | -1.8 ± 0.59% | -1.73 ± 0.11% | -2.07 ± 1.2% |
| O=C(O)CC[C@H](NC(=O)c1ccc([N+](=O)[O-])cc1)C(=O)O [(S)-2-(4-Nitrobenzamido)pentanedioic acid] | 103.2 ± 0.55% | 101.4 ± 0.26% | 101 ± 4% | 90.7 ± 1.9% | 106 ± 5.3% | 100 ± 2.4% | 110 ± 1.1% | 102 ± 1.9% | 102 ± 1.6% | 99 ± 1.6% | 103 ± 4.5% | 88.78 ± 0.71% | 102 ± 2.1% | 102 ± 2.3% | 102 ± 3.7% | 102 ± 10% | 103 ± 7.4% | 101 ± 1.4% | 99.2 ± 2.3% | 92.3 ± 24% |
| CC(/C=C1\SC(=S)N(CC(=O)O)C1=O)=C\c1ccccc1 [Epalrestat] | 102 ± 1.1% | 100 ± 6.5% | 102 ± 5.9% | 92 ± 4.1% | 64.9 ± 48% | 79.3 ± 39% | 79.1 ± 29% | 75.1 ± 35% | 105.5 ± 0.65% | 102 ± 4% | 109 ± 3.6% | 97.1 ± 7.8% | 101.8 ± 0.5% | 100.82 ± 0.007% | 107.58 ± 0.028% | 95.4 ± 13% | 87.6 ± 2.7% | 94.16 ± 0.38% | 94.2 ± 4.2% | 88.6 ± 2.3% |
| O=C(O)CCc1ccc(NCc2cccc(Oc3ccccc3)c2)cc1 [GW9508] | 101 ± 1.3% | 95.5 ± 6.2% | 105 ± 9.8% | 99.4 ± 5.3% | 98.73 ± 0.68% | 99.12 ± 0.57% | 98.1 ± 2.8% | 90.3 ± 3.8% | 98 ± 3.5% | 101.3 ± 0.3% | 101 ± 2.4% | 90.9 ± 12% | 105 ± 4.1% | 99.6 ± 0.95% | 108 ± 8.4% | 97.1 ± 6.7% | 103 ± 3.2% | 98.5 ± 1.1% | 107 ± 3.9% | 100 ± 3.3% |
| O=P(O)(O)C(O)(Cn1ccnc1)P(=O)(O)O [Zoledronic acid] | 102 ± 2.9% | 98.3 ± 11% | 91.7 ± 49% | 81.3 ± 24% | 101 ± 2.4% | 99.8 ± 2.5% | 92.3 ± 6.2% | 98.9 ± 1.2% | 102 ± 2.3% | 101 ± 1.7% | 95.8 ± 4.7% | 100 ± 9.7% | 101 ± 2.5% | 105.3 ± 0.2% | 103 ± 14% | 108 ± 12% | 98 ± 3.6% | 101 ± 5.2% | 80 ± 26% | 98 ± 7.6% |
| COc1cc2c(NC3CCN(C)CC3)nc(N3CCCN(C)CC3)nc2cc1OCCCN(C)C [UNC0224] | 102 ± 2.2% | 104 ± 2.2% | 114 ± 13% | 101 ± 1.9% | 101 ± 5.6% | 103 ± 7.6% | 113 ± 31% | 108 ± 0.28% | 100 ± 1.5% | 102 ± 6.9% | 96.8 ± 5.5% | 102 ± 9.6% | 99.416 ± 0.052% | 101 ± 1.8% | 96.3 ± 3.7% | 103 ± 1.8% | 95.6 ± 0.11% | 93.3 ± 4.4% | 91.9 ± 6.9% | 74.8 ± 9.6% |
| C=CCc1ccc2c(c1O)C(=O)c1ccccc1C2=O [R162] | 106 ± 5.3% | 103 ± 1.6% | 102 ± 2.1% | 102 ± 18% | 99.12 ± 0.61% | 103 ± 3.5% | 103 ± 8.4% | 101 ± 10% | 104 ± 4.1% | 98.1 ± 2.4% | 98.5 ± 4.3% | 101 ± 7.5% | 102 ± 1.3% | 100.6 ± 0.84% | 100 ± 2.6% | 104 ± 2.5% | 106 ± 4.2% | 97.8 ± 2.4% | 97.07 ± 0.71% | 90.6 ± 9.3% |
| C1CCC(C(CC2CCCCN2)C2CCCCC2)CC1.O=C(O)/C=C\C(=O)O (stereo not given) [Perhexiline] | 101 ± 3.6% | 108 ± 3.6% | 104.6 ± 0.56% | 90.6 ± 16% | 95.4 ± 6.8% | 102 ± 4.9% | 91.3 ± 14% | 98.9 ± 25% | 108 ± 5.2% | 103 ± 3.9% | 99 ± 9.2% | 112.1 ± 0.54% | 99.1 ± 2.5% | 105 ± 2.4% | 86.4 ± 9.4% | 73.2 ± 25% | -0.971 ± 0.58% | -1.01 ± 1.6% | -1.86 ± 0.47% | -1.67 ± 0.61% |
| Nc1ccn([C@@H]2O[C@H](CO)[C@@H](O)[C@@H]2O)c(=O)n1 [Cytarabine] | 82 ± 32% | 80.7 ± 36% | 99.2 ± 2.5% | 103 ± 14% | 96.1 ± 7.4% | 102 ± 1.5% | 97.4 ± 1.3% | 101 ± 5.1% | 99.4 ± 4.1% | 101 ± 2.5% | 95.8 ± 1.5% | 84.52 ± 0.57% | 46.7 ± 9.3% | 59.5 ± 7% | 60.6 ± 3.9% | 30.9 ± 0.58% | 6.3 ± 2.2% | 6.92 ± 1.2% | 7.86 ± 0.42% | 6.83 ± 3% |
